Values belong to the molecule of their own block, whether it stands above or below them. The source made the active and inactive calls. The calls are words filed in the database; no cut-off is given here.
How the values were obtained:
JeKo-1 [1] = assay: cells; conditions: Homo sapiens, JeKo-1, 72 h
Description: Antiproliferative activity against human JeKo-1 cells assessed as inhibition of cell growth incubated for 72 hrs by CCK8 assay

MV4-11 [2] = assay: cells; conditions: Homo sapiens, MV4-11, 72 h
JeKo-1 [3] = assay: Antitumor activity against human JeKo-1 cells xenografted NOD/SCID mouse assessed as reduction in tumor weight at 50 mg/kg, ip measured for 16 days; assay type: functional; conditions: time 16 day
MOLT-4 = assay: cells; conditions: Homo sapiens, MOLT-4, 72 h
Description: Antiproliferative activity against human MOLT-4 cells assessed as inhibition of cell growth incubated for 72 hrs by CCK8 assay

JeKo-1 [4] = assay: Antitumor activity against human JeKo-1 cells xenografted NOD/SCID mouse assessed as tumor growth inhibition at 50 mg/kg, ip measured for 16 days; assay type: functional; conditions: JeKo-1, 384 h, time 16 day, read-out: TGI
K562 = assay: cells; conditions: Homo sapiens, K562, 72 h
Description: Antiproliferative activity against human K562 cells assessed as inhibition of cell growth incubated for 72 hrs by CCK8 assay

P-glycoprotein = assay: in vitro; conditions: human, Caco-2
Description: Efflux ratio of apparent permeability across basolateral to apical side over apical to basolateral side in human Caco-2 cells incubated for 120 mins in presence of P-glycoprotein by LC-MS/MS analysis

in vitro [5] = conditions: human, Caco-2
Description: Apparent permeability across apical to basolateral side in human Caco-2 cells incubated for 120 mins by LC-MS/MS analysis

in vitro [6] = conditions: human, Caco-2; remark: listed apart in the source
Description: Apparent permeability across basolateral to apical side in human Caco-2 cells incubated for 120 mins by LC-MS/MS analysis

[7] = Metabolic stability in human liver microsome assessed as half life preincubated with compound for 5 mins followed by NADPH addition and measured upto 60 mins by LC-MS/MS analysis; assay type: ADME; conditions: liver microsomes, time < 65 min
[8] = Metabolic stability in human liver microsome assessed as intrinsic clearance preincubated with compound for 5 mins followed by NADPH addition and measured upto 60 mins by LC-MS/MS analysis; assay type: ADME; conditions: liver microsomes, time < 65 min, read-out: CLH
JeKo-1 [9] = assay: Induction of apoptosis in human JeKo-1 cells assessed as late apoptotic cells at 750 nM incubated for 72 hrs by Annexin VFITC/PI staining based flow cytometry analysis (reference value: 1.42%); assay type: functional
JeKo-1 [10] = assay: Induction of apoptosis in human JeKo-1 cells assessed as viable cells at 750 nM incubated for 72 hrs by Annexin VFITC/PI staining based flow cytometry analysis (reference value: 94.81%); assay type: functional
JeKo-1 [11] = assay: Induction of apoptosis in human JeKo-1 cells assessed as necrotic cells at 750 nM incubated for 72 hrs by Annexin VFITC/PI staining based flow cytometry analysis (reference value: 0.67%); assay type: functional
JeKo-1 [12] = assay: Induction of apoptosis in human JeKo-1 cells assessed as early apoptotic cells at 750 nM incubated for 72 hrs by Annexin VFITC/PI staining based flow cytometry analysis (reference value: 3.10%); assay type: functional
[13] = target: Tyrosine-protein kinase BTK (Homo sapiens, UniProt Q06187); assay: Inhibition of BTK (unknown origin) incubated for 40 mins by radiometric kinase assay
MV4-11 [14] = assay: Antitumor activity against human MV4-11 cells xenografted NOD/SCID mouse assessed as increase in tumor necrotic cells at 20 mg/kg, ip administered once daily for 21 days by H and E staining analysis; assay type: functional, organism-based; conditions: time 21.0 day

Chain of Tyrosine-protein kinase BTK (Q06187 whole entry): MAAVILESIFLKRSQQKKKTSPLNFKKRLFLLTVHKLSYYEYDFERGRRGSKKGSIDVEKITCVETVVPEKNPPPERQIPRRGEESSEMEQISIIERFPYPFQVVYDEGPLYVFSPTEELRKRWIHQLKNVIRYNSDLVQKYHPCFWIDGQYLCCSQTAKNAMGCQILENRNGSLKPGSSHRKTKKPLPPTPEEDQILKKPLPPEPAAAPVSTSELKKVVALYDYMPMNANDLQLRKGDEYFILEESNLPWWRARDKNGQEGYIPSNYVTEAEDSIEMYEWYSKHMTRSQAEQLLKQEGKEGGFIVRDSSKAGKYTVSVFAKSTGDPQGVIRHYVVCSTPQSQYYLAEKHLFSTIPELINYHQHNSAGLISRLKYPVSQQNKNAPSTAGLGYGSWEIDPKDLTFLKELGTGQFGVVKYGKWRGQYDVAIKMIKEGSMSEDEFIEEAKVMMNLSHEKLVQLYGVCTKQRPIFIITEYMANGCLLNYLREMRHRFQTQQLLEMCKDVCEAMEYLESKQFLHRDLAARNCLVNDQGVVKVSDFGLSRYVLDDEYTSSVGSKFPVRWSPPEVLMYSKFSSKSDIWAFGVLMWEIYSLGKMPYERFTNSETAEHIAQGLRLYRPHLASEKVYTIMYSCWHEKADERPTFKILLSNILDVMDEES

IC50 (JeKo-1 [1]): 1410 nM
Compound: CN1CCN(c2ccc(Nc3ncc(F)c(Nc4ccc(C(=O)NN)cc4)n3)cc2)CC1

IC50 (JeKo-1 [1]): 222 nM
Compound: CN1CCN(c2ccc(Nc3ncc(F)c(Nc4cccc(C(=O)NN)c4)n3)cc2F)CC1

IC50 (JeKo-1 [1]): > 2000 nM
Compound: NNC(=O)c1ccc(Nc2nc(Nc3ccc(N4CCOCC4)cc3)ncc2F)cc1

IC50 (JeKo-1 [1]): > 2000 nM
Compound: NNC(=O)c1ccc(Nc2nc(Nc3ccc(N4CCCCC4)cc3)ncc2F)cc1

IC50 (JeKo-1 [1]): > 2000 nM
Compound: COc1cc(N2CCN(C)CC2)ccc1Nc1ncc(F)c(Nc2cccc(C(=O)NN)c2)n1

IC50 (JeKo-1 [1]): 1480 nM
IC50 (MV4-11 [2]): 245 nM
IC50 (MOLT-4): 1460 nM
IC50 (K562): 7400 nM
Compound: C=CC(=O)Nc1cccc(Nc2nc(Nc3ccc(OCCOC)cc3)ncc2F)c1 [SPEBRUTINIB]
Activity (JeKo-1 [3]): 0.69 g
inhibition in vivo at 50 mg/kg (JeKo-1 [4]): 38.1%

IC50 (JeKo-1 [1]): 1280 nM
Compound: CCN1CCN(c2ccc(Nc3ncc(F)c(Nc4ccccc4C(=O)NN)n3)cc2)CC1

IC50 (JeKo-1 [1]): 1880 nM
Compound: NNC(=O)c1ccccc1Nc1nc(Nc2ccc(N3CCCCC3)cc2)ncc1F

efflux ratio at 2 h (P-glycoprotein): 44.1
Papp A→B at 2 h (in vitro [5]): 0.25 ×10⁻⁶ cm/s
Papp B→A at 2 h (in vitro [6]): 11.2 ×10⁻⁶ cm/s
Compound: C[C@H]1O[C@@H](O[C@H]2[C@@H](O)C[C@H](O[C@H]3[C@@H](O)C[C@H](O[C@H]4CC[C@@]5(C)[C@H](CC[C@@H]6[C@@H]5C[C@@H](O)[C@]5(C)[C@@H](C7=CC(=O)OC7)CC[C@]65O)C4)O[C@@H]3C)O[C@@H]2C)C[C@H](O)[C@@H]1O [DIGOXIN]

Compound: O=C(O)Cc1ccccc1Nc1c(Cl)cccc1Cl [DICLOFENAC]
half-life [7]: 5.44 min
CLint scaled [8]: 230 mL/min/kg

IC50 (JeKo-1 [1]): > 2000 nM
Compound: COc1cc(N2CCN(C)CC2)ccc1Nc1ncc(F)c(Nc2ccc(C(=O)NN)cc2)n1

Compound: C=CC(=O)N1CCC[C@@H](n2nc(-c3ccc(Oc4ccccc4)cc3)c3c(N)ncnc32)C1 [IBRUTINIB]
Activity (JeKo-1 [9]): 0.32%
Activity (JeKo-1 [10]): 85.08%
Activity (JeKo-1 [11]): 0.18%
IC50 (JeKo-1 [1]): 1680 nM
IC50 (MV4-11 [2]): 423 nM
Activity (JeKo-1 [12]): 14.42%
IC50 (MOLT-4): 3520 nM
IC50 (K562): 5570 nM

efflux ratio at 2 h (P-glycoprotein): 0.62
Papp A→B at 2 h (in vitro [5]): 32.4 ×10⁻⁶ cm/s
Papp B→A at 2 h (in vitro [6]): 20.1 ×10⁻⁶ cm/s
Compound: CC(C)NCC(O)COc1cccc2ccccc12 (stereo unspecified) [PROPRANOLOL]

IC50 (JeKo-1 [1]): 1750 nM
Compound: CCN1CCN(c2ccc(Nc3ncc(F)c(Nc4ccc(C(=O)NN)cc4)n3)cc2)CC1

IC50 (JeKo-1 [1]): 540 nM
Compound: CCN1CCN(c2ccc(Nc3ncc(F)c(Nc4cccc(C(=O)NN)c4)n3)cc2)CC1

IC50 (JeKo-1 [1]): > 2000 nM
Compound: COc1cc(N2CCN(C)CC2)ccc1Nc1ncc(F)c(Nc2ccccc2C(=O)NN)n1

IC50 [13]: 84 nM
IC50 (JeKo-1 [1]): 52 nM
IC50 (MV4-11 [2]): 31 nM
IC50 (MOLT-4): 65 nM
IC50 (K562): 690 nM
Compound: CN1CCN(c2ccc(Nc3ncc(F)c(Nc4ccccc4C(=O)NN)n3)cc2F)CC1

IC50 [13]: 105 nM
IC50 (JeKo-1 [1]): 88 nM
IC50 (MV4-11 [2]): 41 nM
IC50 (MOLT-4): 239 nM
IC50 (K562): > 25000 nM
Compound: NNC(=O)c1ccccc1Nc1nc(Nc2ccc(N3CCOCC3)cc2)ncc1F

IC50 (JeKo-1 [1]): 1090 nM
Compound: CN1CCN(c2ccc(Nc3ncc(F)c(Nc4ccc(C(=O)NN)cc4)n3)cc2F)CC1

IC50 (JeKo-1 [1]): 562 nM
Compound: CN1CCN(c2ccc(Nc3ncc(F)c(Nc4cccc(C(=O)NN)c4)n3)cc2)CC1

IC50 (JeKo-1 [1]): 1070 nM
IC50 (MOLT-4): 2500 nM
IC50 (K562): 7740 nM
Compound: CNC(=O)c1cc(Oc2ccc(NC(=O)Nc3ccc(Cl)c(C(F)(F)F)c3)cc2)ccn1 [SORAFENIB]
Activity (MV4-11 [14]): Active

IC50 (JeKo-1 [1]): 801 nM
Compound: NNC(=O)c1cccc(Nc2nc(Nc3ccc(N4CCOCC4)cc3)ncc2F)c1

IC50 (JeKo-1 [1]): 1240 nM
Compound: NNC(=O)c1cccc(Nc2nc(Nc3ccc(N4CCCCC4)cc3)ncc2F)c1

Source: ChEMBL document CHEMBL5385861, “Development of novel hydrazidoarylaminopyrimidine-based BTK/FLT3 dual inhibitors with potent in vivo anti-hematological malignancies effects” (Eur J Med Chem, 2023)
